Source: patent US7282590B2, “Drug conjugates” (The Research Foundation of State University of New York, priority 2004, dated 2007)

How the values were obtained:
[1] = Cleavage of the disulfide bond in the drug-linker conjugate (drug release with cysteine as a model of glutathione, monitored by HPLC); type: physicochemical; settings: cysteine in buffer pH 7.0 / CH3CN, room temperature, after 2 hours
Procedure: In order to confirm that the designed drug-release mechanism works under physiological conditions, a control experiment was performed using an anticancer linker drug conjugate and cysteine as a model of glutathione. The results of the experiment below provide clear evidence that the drug is released according to the desired mechanism of the invention.
To a solution of the drug-linker conjugate, 2′-(5-fluoro-2-methyldisulfanylphenyl)acetyl-3′-dephenyl-3′-(2-methylpropyl)-10-propanoyldocetaxel, (4.8 mg, 0.0045 mmol) in CH3CN (1.1 mL) was added cysteine (2.20 mg, 0.018 mmol) in buffer (pH 7.0, 0.56 mL) solution. The mixture was stirred at room temperature. The progress of the disulfide cleavage and drug release process was monitored by HPLC [Conditions: C-18 column. Flow rate: H2O, 0.6 mL/min; CH3CN, 0.4 mL/min., ambient temperature] periodically. The formations of thiolactone (5-fluoro-3H-benzo[b]thiophen-2-one) (retention time=9.05 min) and taxoid (3′-dephenyl-3′-(2-methylpropyl)-10-propanoyldocetaxel) (retention time=14.01 min) as well as the disappearance of the drug-linker conjugate (retention time=18.20 min) was clearly observed.

Compound	disappearance of the drug-linker conjugate (disulfide cleavage and drug release: release of the taxoid, formation of the thiolactone) [1]	melting point
2′-(5-fluoro-2-methyldisulfanylphenyl)acetyl-3′-dephenyl-3′-(2-methylpropyl)-10-propanoyldocetaxel	completely disappeared	–
CC(C)(CC(=O)O)c1ccccc1SSc1ccccn1 [Example 7, 3-Methyl-3-[2-(pyridine-2-yldisulfanyl)phenyl]butanoic acid]	–	122 to 125 °C
